Assay results taken from patent publication US8946215B2, “Hydroxy-substituted imidazo[1,2-a]pyridinecarboxamides and their use” (Bayer Pharma Aktiengesellschaft, priority 2012, dated 2015).

Molecular target: T1, recombinant guanylate cyclase reporter cell line (Rattus norvegicus, UniProt P19686+P20595)
T1 construct: expressed in transfected cells
T1 sequence (P20595 1-619): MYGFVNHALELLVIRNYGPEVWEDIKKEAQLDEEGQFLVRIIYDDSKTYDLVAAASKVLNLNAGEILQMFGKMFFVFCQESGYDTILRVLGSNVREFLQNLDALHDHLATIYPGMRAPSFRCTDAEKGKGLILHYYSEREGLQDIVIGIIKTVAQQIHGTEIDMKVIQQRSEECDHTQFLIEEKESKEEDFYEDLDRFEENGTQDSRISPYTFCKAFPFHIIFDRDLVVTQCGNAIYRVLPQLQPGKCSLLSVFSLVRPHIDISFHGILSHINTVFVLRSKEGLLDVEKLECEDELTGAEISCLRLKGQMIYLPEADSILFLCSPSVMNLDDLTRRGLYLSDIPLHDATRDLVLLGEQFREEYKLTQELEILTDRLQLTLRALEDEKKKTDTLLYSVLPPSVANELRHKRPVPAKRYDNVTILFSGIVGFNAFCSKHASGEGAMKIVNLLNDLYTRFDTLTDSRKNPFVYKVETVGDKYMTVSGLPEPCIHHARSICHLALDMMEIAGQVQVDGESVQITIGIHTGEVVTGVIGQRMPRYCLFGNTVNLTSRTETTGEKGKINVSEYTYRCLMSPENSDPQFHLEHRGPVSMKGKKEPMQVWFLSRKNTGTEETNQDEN
T1 sequence (P19686 1-690): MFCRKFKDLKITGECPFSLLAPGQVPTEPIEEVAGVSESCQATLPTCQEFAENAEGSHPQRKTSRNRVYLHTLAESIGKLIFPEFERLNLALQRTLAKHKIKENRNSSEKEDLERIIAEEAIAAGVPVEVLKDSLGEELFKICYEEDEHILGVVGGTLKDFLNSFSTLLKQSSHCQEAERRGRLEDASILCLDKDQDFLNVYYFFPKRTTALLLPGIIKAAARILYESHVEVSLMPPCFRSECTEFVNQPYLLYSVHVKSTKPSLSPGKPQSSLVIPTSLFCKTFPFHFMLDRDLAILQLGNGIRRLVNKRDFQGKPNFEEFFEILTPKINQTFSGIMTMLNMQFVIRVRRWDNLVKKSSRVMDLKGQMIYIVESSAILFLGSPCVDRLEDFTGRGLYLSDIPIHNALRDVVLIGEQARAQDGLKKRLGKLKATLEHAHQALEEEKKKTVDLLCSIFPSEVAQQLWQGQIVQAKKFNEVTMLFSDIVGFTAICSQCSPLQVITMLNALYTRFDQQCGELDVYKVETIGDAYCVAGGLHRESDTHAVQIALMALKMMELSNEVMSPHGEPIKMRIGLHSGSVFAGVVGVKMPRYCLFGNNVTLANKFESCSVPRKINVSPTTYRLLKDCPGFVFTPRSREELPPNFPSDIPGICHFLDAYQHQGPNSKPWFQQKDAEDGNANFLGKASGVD
Test: Action on recombinant guanylate cyclase reporter cell line
Assay type: cell-based
Conditions: in some cases mean values obtained from individual determinations
In short: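 Cell-based reporter assay with recombinant guanylate cyclase expressed in a reporter cell line, per a published method. Activity reported as minimal effective concentration (MEC), in some cases as the mean of individual determinations.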

| SMILES | MEC (minimal effective concentration) |
| --- | --- |
| CCCC[C@H](CO)NC(=O)c1c(C)nc2c(OCc3cccc(C(F)(F)F)c3F)cccn12 [Example 14] | 3.0 µM |
| CCCC[C@H](CO)NC(=O)c1c(C)nc2c(OCc3c(F)cc(F)cc3F)cccn12 [Example 15, N-[(2R)-1-Hydroxyhexan-2-yl]-2-methyl-8-[(2,4,6-trifluorobenzyl)oxy]imidazo[1,2-a]pyridine-3-carboxamide] | 0.1 µM |
| CC[C@H](CO)NC(=O)c1c(C)nc2c(OCc3ccccc3)cccn12 [Example 17, 8-(Benzyloxy)-N-[(2R)-1-hydroxybutan-2-yl]-2-methylimidazo[1,2-a]pyridine-3-carboxamide] | 3.0 µM |
| CCC[C@H](CO)NC(=O)c1c(C)nc2c(OCc3c(F)cccc3F)cccn12 [Example 18] | 0.1 µM |
| Cc1nc2c(OCc3c(F)cccc3F)cccn2c1C(=O)N[C@H]1CCC[C@@H]1O [Example 19] | 1.0 µM |
| Cc1nc2c(OCc3c(F)cccc3F)cccn2c1C(=O)NC(C)(C)[C@H](C)O [Example 20] | 1.0 µM |
| Cc1nc2c(OCc3c(F)cccc3F)cccn2c1C(=O)NCCO [Example 21] | 1.0 µM |
| Cc1nc2c(OCc3c(F)cccc3F)cccn2c1C(=O)NCCCO [Example 22] | 1.0 µM |
| Cc1nc2c(OCc3c(F)cccc3F)cccn2c1C(=O)NCCCCO [Example 23] | 0.3 µM |
| Cc1nc2c(OCc3c(F)cccc3F)cccn2c1C(=O)NCCOCCO [Example 24] | 1.0 µM |
| CSCC[C@H](CO)NC(=O)c1c(C)nc2c(OCc3c(F)cccc3F)cccn12 [Example 25] | 0.1 µM |
| Cc1nc2c(OCc3c(F)cccc3F)cccn2c1C(=O)NC(CO)CO [Example 26] | 2.0 µM |
| Cc1nc2c(OCc3c(F)cccc3F)cccn2c1C(=O)NCC1CCCC[C@H]1O (stereo partly shown) [Example 27] | 0.3 µM |
| Cc1nc2c(OCc3c(F)cccc3F)cccn2c1C(=O)NCCC(C)O (stereo not shown) [Example 28] | 0.65 µM |
| Cc1nc2c(OCc3c(F)cccc3F)cccn2c1C(=O)N[C@@H](CO)C(C)C [Example 29] | 0.1 µM |
| CCC(O)CNC(=O)c1c(C)nc2c(OCc3c(F)cccc3F)cccn12 (stereo not shown) [Example 30] | 0.3 µM |
| Cc1nc2c(OCc3c(F)cccc3F)cccn2c1C(=O)NC1(CO)CCCC1 [Example 31] | 1.0 µM |
| Cc1nc2c(OCc3c(F)cccc3F)cccn2c1C(=O)NC[C@@H](O)c1ccccc1 [Example 32] | 1.0 µM |
| Cc1nc2c(OCc3c(F)cccc3F)cccn2c1C(=O)NC[C@H](O)c1ccccc1 [Example 33] | 0.3 µM |

| SMILES | MEC (minimal effective concentration) |
| --- | --- |
| Cc1nc2c(OCc3c(F)cccc3F)cccn2c1C(=O)NC(C)(C)CO [Example 34] | 0.3 µM |
| Cc1nc2c(OCc3c(F)cccc3F)cccn2c1C(=O)N[C@@H](CO)C(C)(C)C [Example 35] | 0.3 µM |
| Cc1nc2c(OCc3c(F)cccc3F)cccn2c1C(=O)N[C@@H]1CCC[C@H]1O [Example 36] | 0.1 µM |
| Cc1nc2c(OCc3c(F)cccc3F)cccn2c1C(=O)N[C@@H]1CCC[C@@H]1O [Example 37] | 0.3 µM |
| Cc1nc2c(OCc3c(F)cccc3F)cccn2c1C(=O)N[C@@H](CO)Cc1ccccc1 [Example 38] | 0.3 µM |
| Cc1nc2c(OCc3c(F)cccc3F)cccn2c1C(=O)N[C@@H](CO)CC(C)C [Example 39, 8-[(2,6-Difluorobenzyl)oxy]-N-[(2R)-1-hydroxy-4-methylpentan-2-yl]-2-methylimidazo[1,2-a]-pyridine-3-carboxamide] | 0.03 µM |
| Cc1nc2c(OCc3c(F)cccc3F)cccn2c1C(=O)N[C@H]1c2ccccc2C[C@H]1O [Example 40, 8-[(2,6-difluorobenzyl)oxy]-N-[(1S,2R)-2-hydroxy-2,3-dihydro-1H-inden-1-yl]-2-methylimidazo[1,2-a]pyridine-3-carboxamide] | 0.1 µM |
| Cc1nc2c(OCc3c(F)cccc3F)cccn2c1C(=O)NCC(C)(C)CO [Example 41, 8-[(2,6-difluorobenzyl)oxy]-N-(3-hydroxy-2,2-dimethylpropyl)-2-methylimidazo[1,2-a]-pyridine-3-carboxamide] | 3.0 µM |
| CC[C@H](CO)NC(=O)c1c(C)nc2c(OCc3c(F)cccc3F)cccn12 [Example 43, 8-[(2,6-Difluorobenzyl)oxy]-N-[(2R)-1-hydroxybutan-2-yl]-2-methylimidazo[1,2-a]pyridine-3-carboxamide] | 0.16 µM |
| CC[C@H](CO)NC(=O)c1c(C)nc2c(OCc3cccc(F)c3F)cccn12 [Example 44, 8-[(2,3-difluorobenzyl)oxy]-N-[(2R)-1-hydroxybutan-2-yl]-2-methylimidazo[1,2-a]-pyridine-3-carboxamide] | 0.3 µM |
| CC[C@H](CO)NC(=O)c1c(C)nc2c(OCc3cccc(Cl)c3Cl)cccn12 [Example 45, 8-[(2,3-dichlorobenzyl)oxy]-N-[(2R)-1-hydroxybutan-2-yl]-2-methylimidazo[1,2-a]-pyridine-3-carboxamide] | 0.65 µM |
| Cc1nc2c(OCc3ccccc3)cccn2c1C(=O)N[C@@H](C)CO [Example 46, 8-(Benzyloxy)-N-[(2S)-1-hydroxypropan-2-yl]-2-methylimidazo[1,2-a]pyridine-3-carboxamide] | 3.0 µM |
| Cc1nc2c(OCc3cccc(Cl)c3Cl)cccn2c1C(=O)NCCC1(O)CCCC1 [Example 47, 8-[(2,3-dichlorobenzyl)oxy]-N-[2-(1-hydroxycyclopentyl)ethyl]-2-methylimidazo[1,2-a]-pyridine-3-carboxamide] | 0.3 µM |
| Cc1nc2c(OCc3ccccc3)cccn2c1C(=O)NCCC1(O)CCCC1 [Example 48, 8-(benzyloxy)-N-[2-(1-hydroxycyclopentyl)ethyl]-2-methylimidazo[1,2-a]pyridine-3-carboxamide] | 1.0 µM |
| Cc1nc2c(OCc3cccc(Cl)c3Cl)cccn2c1C(=O)NC(CO)CO [Example 49, 8-[(2,3-dichlorobenzyl)oxy]-N-(1,3-dihydroxypropan-2-yl)-2-methylimidazo[1,2-a]-pyridine-3-carboxamide] | 2.0 µM |
| Cc1nc2c(OCc3ccccc3F)cccn2c1C(=O)NC(CO)CO [Example 51, N-(1,3-dihydroxypropan-2-yl)-8-[(2-fluorobenzyl)oxy]-2-methylimidazo[1,2-a]pyridine-3-carboxamide] | 5.5 µM |
| Cc1cccc(COc2cccn3c(C(=O)NC(CO)CO)c(C)nc23)c1Cl [Example 52, 8-[(2-chloro-3-methylbenzyl)oxy]-N-(1,3-dihydroxypropan-2-yl)-2-methylimidazo[1,2-a]-pyridine-3-carboxamide] | 10 µM |
| Cc1nc2c(OCc3c(Cl)cccc3Cl)cccn2c1C(=O)NC(CO)CO [Example 53, 8-[(2,6-dichlorobenzyl)oxy]-N-(1,3-dihydroxypropan-2-yl)-2-methylimidazo[1,2-a]-pyridine-3-carboxamide] | 10 µM |
